Measurements reported in PubChem BioAssay AID2060891 (Molecular Pharmacology Branch, DTP, NCI, 2025).
pIC50: −log10 of the molar value. Values belong to the compound of their own block, whether it stands above or below them.

Test system: K98450-129-R-PDC complex spheroid growth, percent test/control
Test: Anticancer human tumor K98450-129-R-PDC patient-derived colon adenocarcinoma cell line growth inhibition [RAS]
Settings: for viability, T/C: stronger effect = lower value; for pIC50: curve of first compound
Excerpt: RAS pathway inhibitors in Combinations in Complex Spheroids
A high-throughput screen of multi-cell type tumor spheroids was designed to identify active combinations of RAS pathway inhibitors and targeted small molecules. Complex spheroids include a stromal component modeled by human endothelial cells (HUVEC) and fibroblasts modeled by human mesenchymal stem cells (MSCs). The concentration ranges selected for each drug and investigational agent were based upon clinically achievable concentrations if the clinical Cmax of the agent was known.
Compounds. The drugs and investigational agents: abemaciclib (NSC768073), cobimetinib (NSC768068), divarasib (GDC6063, NSC841802), docetaxel (NSC628503), GDC-1971 (RLY-1971, NSC841576), gemcitabine (NSC613327), inavolisib (NSC800729), ipatasertib (NSC767898), KB-0742 (NSC834161), MRTX-1133 (NSC836407), osimertinib (NSC779217), RMC-4630 (NSC839698), RMC-6236 (NSC851965), RMC-6291 (NSC852671), Ro-3306 (NSC812927), sapanisertib (NSC764658), SN-38 (NSC673596), staurosporine (NSC755774), SY5609 (NSC837396), and tovorafenib (DAY101, NSC766906), were obtained from the National Cancer Institute (NCI) Developmental Therapeutics Program Chemical Repository. The FDA-approved anticancer drug set is available from the NCI Developmental Therapeutics Program. […] The stock solutions were prepared in dimethyl sulfoxide (DMSO, Sigma-Aldrich, St. Louis, MO, cat. D2650) at 800-fold the tested concentration and stored at -70 degrees C prior to their use. All drugs and investigational agents were tested over a range starting from a high concentration at or near the clinical Cmax and decreasing in half-log increments. If the clinical Cmax for an agent had not been determined, the highest concentration tested was 10 microM.
Cell Culture. All cells were maintained in an incubator at 37 degrees C and 5% CO2 with 95% humidity. The PDC lines were cultured according to standard operating procedures established by the NCI PDMR. All PDCs were thawed and cultured in Matrigel-coated flasks prepared with a working solution of 1X Ham's F-12 nutrient mix, without supplementation (Invitrogen, Waltham, MA, cat. 11765054), 100 U/mL penicillin-streptomycin (Invitrogen, cat. 15140122), and 2.5% Matrigel (Corning Inc., Corning, NY, cat. 354248) for the first three passages. The 362531-283-R-J2-PDC and 782815-120-R-J1-PDC lines were cultured in 6C/Colon 1B media, which includes advanced DMEM/F-12 (Thermo Fisher Scientific, cat. 12634028), 10 mM HEPES (Thermo Fisher Scientific, cat. 15630080), 1X GlutaMAX supplement (Thermo Fisher Scientific, cat. 35050061), 0.1 mg/mL primocin (InvivoGen, San Diego, CA, cat. ant-pm-2), 10% defined fetal bovine serum, heat inactivated (HyClone Laboratories Inc., Logan, UT, cat. SH30070.03HI), 50% L-WRN conditioned media (ATCC, cat. CRL-3276), 1.25 mM N-Acetyl-L-cysteine (Sigma-Aldrich, cat. A9165), 10 mM nicotinamide (Sigma-Aldrich, cat. N0636), 1X B-27 supplement (Thermo Fisher Scientific, cat. 17504044), 1X N-2 supplement (Thermo Fisher Scientific, cat. 17502048), 50 ng/mL human EGF (Thermo Fisher Scientific, cat. PHG0311), and 10 microM Y-27632 dihydrochloride (Tocris Bioscience, cat. 1254). The K12877-001-R-J1-PDC line was cultured in 6I media, which includes all 6C/Colon 1B media plus 10 ng/mL human FGF-10 (PeproTech, cat. 100-26), 1 ng/mL human FGF-2 (PeproTech, cat. 100-18B), 1 µM prostaglandin E2 (Tocris Bioscience, cat. 2296), […] hydrocortisone (Sigma-Aldrich, cat. H4001), and […] bovine insulin (Sigma-Aldrich, cat. I6634). The K86415-001-R-J1-PDC line was cultured in 6D media, which includes all 6C/Colon 1B media components minus the L-WRN conditioned media. The 485176-168-R4-J1-PDC was cultured in PANC media, which includes all 6C/Colon 1B media plus 100 ng/mL human FGF-10 (PeproTech, cat. 100-26), 500 nM SB-431542 (Selleckchem, cat. S1067), and 10 nM gastrin (Tocris Bioscience, cat. 3006). […]

[1] = second compound 0.0316 µM, first compound 0.00316 µM
[2] = second compound 0.0316 µM, first compound 0.01 µM
[3] = second compound 0.0316 µM, first compound 0.0316 µM
[4] = second compound 0.0316 µM, first compound 0.1 µM
[5] = second compound 0.0316 µM, first compound 0.316 µM
[6] = second compound 0.0316 µM, first compound 1 µM
[7] = second compound 0.1 µM, first compound 0.00316 µM
[8] = second compound 0.1 µM, first compound 0.01 µM
[9] = second compound 0.1 µM, first compound 0.0316 µM
[10] = second compound 0.1 µM, first compound 0.1 µM
[11] = second compound 0.1 µM, first compound 0.316 µM
[12] = second compound 0.1 µM, first compound 1 µM
[13] = second compound 0.316 µM, first compound 0.00316 µM
[14] = second compound 0.316 µM, first compound 0.01 µM
[15] = second compound 0.316 µM, first compound 0.0316 µM
[16] = second compound 0.316 µM, first compound 0.1 µM
[17] = second compound 0.316 µM, first compound 0.316 µM
[18] = second compound 0.316 µM, first compound 1 µM
[19] = second compound 1 µM, first compound 0.00316 µM
[20] = second compound 1 µM, first compound 0.01 µM
[21] = second compound 1 µM, first compound 0.0316 µM
[22] = second compound 1 µM, first compound 0.1 µM
[23] = second compound 1 µM, first compound 0.316 µM
[24] = second compound 1 µM, first compound 1 µM
[25] = second compound 3.16 µM, first compound 0.00316 µM
[26] = second compound 3.16 µM, first compound 0.01 µM
[27] = second compound 3.16 µM, first compound 0.0316 µM
[28] = second compound 3.16 µM, first compound 0.1 µM
[29] = second compound 3.16 µM, first compound 0.316 µM
[30] = second compound 3.16 µM, first compound 1 µM
[31] = second compound 10 µM, first compound 0.00316 µM
[32] = second compound 10 µM, first compound 0.01 µM
[33] = second compound 10 µM, first compound 0.0316 µM
[34] = second compound 10 µM, first compound 0.1 µM
[35] = second compound 10 µM, first compound 0.316 µM
[36] = second compound 10 µM, first compound 1 µM
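Also: spheroids exposed to agents for seven days before the viability readout.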
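For viability, T/C in this document: luminescence used as a proxy for viable cell amount.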

SMILES: CC(=O)OC12COC1CC(O)C1(C)C(=O)C(O)C3=C(C)C(OC(=O)C(O)C(NC(=O)OC(C)(C)C)c4ccccc4)CC(O)(C(OC(=O)c4ccccc4)C21)C3(C)C (stereo unspecified)
viability, T/C (compound 0.0316 µM): 104% [middle of 4 runs]
viability, T/C (compound 0.316 µM): 65.8% [middle of 4 runs]
viability, T/C (compound 1 µM): 50.8% [middle of 4 runs]
viability, T/C (compound 3.16 µM): 42.5% [middle of 4 runs]
viability, T/C (compound 10 µM): 43.9% [middle of 4 runs]

pIC50 (second compound 0.0316 µM): 6.21
pIC50 (second compound 0.1 µM): 6.20
pIC50 (second compound 0.316 µM): 6.23
pIC50 (second compound 1 µM): 6.33
pIC50 (second compound 3.16 µM): 6.48
pIC50 (second compound 10 µM): 6.71
SMILES: C=CC(=O)Nc1cc(Nc2nccc(-c3cn(C)c4ccccc34)n2)c(OC)cc1N(C)CCN(C)C + C#Cc1c(F)ccc2cc(O)cc(-c3ncc4c(N5CC6CCC(C5)N6)nc(OCC56CCCN5CC(F)C6)nc4c3F)c12
viability, T/C [1]: 107%
viability, T/C [2]: 112%
viability, T/C [3]: 106%
viability, T/C [4]: 100%
viability, T/C [5]: 69.4%
viability, T/C [6]: 36.4%
viability, T/C [7]: 107%
viability, T/C [8]: 100%
viability, T/C [9]: 103%
viability, T/C [10]: 101%
viability, T/C [11]: 79.6%
viability, T/C [12]: 30.9%
viability, T/C [13]: 112%
viability, T/C [14]: 106%
viability, T/C [15]: 97.9%
viability, T/C [16]: 95.8%
viability, T/C [17]: 78.6%
viability, T/C [18]: 26%
viability, T/C [19]: 105%
viability, T/C [20]: 105%
viability, T/C [21]: 92.6%
viability, T/C [22]: 95%
viability, T/C [23]: 66.3%
viability, T/C [24]: 16.6%
viability, T/C [25]: 93.7%
viability, T/C [26]: 94.3%
viability, T/C [27]: 94.6%
viability, T/C [28]: 89.7%
viability, T/C [29]: 51.5%
viability, T/C [30]: 11.5%
viability, T/C [31]: 91.9%
viability, T/C [32]: 85.3%
viability, T/C [33]: 90.1%
viability, T/C [34]: 79.3%
viability, T/C [35]: 28%
viability, T/C [36]: 10.6%

pIC50 (second compound 0.0316 µM): < 5.00
pIC50 (second compound 0.1 µM): < 5.00
pIC50 (second compound 0.316 µM): < 5.00
pIC50 (second compound 1 µM): < 5.00
pIC50 (second compound 3.16 µM): < 5.00
pIC50 (second compound 10 µM): < 5.00
SMILES: CC(Nc1ccc2c(c1)OCCn1cc(N3C(=O)OCC3C(F)F)nc1-2)C(N)=O (stereo unspecified) + C#Cc1c(F)ccc2cc(O)cc(-c3ncc4c(N5CC6CCC(C5)N6)nc(OCC56CCCN5CC(F)C6)nc4c3F)c12
viability, T/C [3]: 105%
viability, T/C [4]: 94.6%
viability, T/C [5]: 95.1%
viability, T/C [6]: 94.4%
viability, T/C (second compound 0.0316 µM, first compound 3.16 µM): 83.6%
viability, T/C (second compound 0.0316 µM, first compound 10 µM): 73.8%
viability, T/C [9]: 102%
viability, T/C [10]: 98.1%
viability, T/C [11]: 88.3%
viability, T/C [12]: 95.1%
viability, T/C (second compound 0.1 µM, first compound 3.16 µM): 83%
viability, T/C (second compound 0.1 µM, first compound 10 µM): 70.4%
viability, T/C [15]: 114%
viability, T/C [16]: 98.1%
viability, T/C [17]: 95.7%
viability, T/C [18]: 91.1%
viability, T/C (second compound 0.316 µM, first compound 3.16 µM): 84.3%
viability, T/C (second compound 0.316 µM, first compound 10 µM): 72.1%
viability, T/C [21]: 102%
viability, T/C [22]: 103%
viability, T/C [23]: 94.8%
viability, T/C [24]: 84%
viability, T/C (second compound 1 µM, first compound 3.16 µM): 81.8%
viability, T/C (second compound 1 µM, first compound 10 µM): 64.3%
viability, T/C [27]: 89.8%
viability, T/C [28]: 93.3%
viability, T/C [29]: 88.4%
viability, T/C [30]: 74.2%
viability, T/C (second compound 3.16 µM, first compound 3.16 µM): 72.5%
viability, T/C (second compound 3.16 µM, first compound 10 µM): 68.4%
viability, T/C [33]: 80.5%
viability, T/C [34]: 83.5%
viability, T/C [35]: 82.2%
viability, T/C [36]: 68.1%
viability, T/C (second compound 10 µM, first compound 3.16 µM): 64.8%
viability, T/C (second compound 10 µM, first compound 10 µM): 57.3%

pIC50 (second compound 0.0316 µM): 6.73
pIC50 (second compound 0.1 µM): 6.73
pIC50 (second compound 0.316 µM): 6.77
pIC50 (second compound 1 µM): 6.77
pIC50 (second compound 3.16 µM): 6.80
pIC50 (second compound 10 µM): 6.90
SMILES: O=C(c1ccc(F)c(F)c1Nc1ccc(I)cc1F)N1CC(O)([C@@H]2CCCCN2)C1 + C#Cc1c(F)ccc2cc(O)cc(-c3ncc4c(N5CC6CCC(C5)N6)nc(OCC56CCCN5CC(F)C6)nc4c3F)c12
viability, T/C [1]: 108%
viability, T/C [2]: 105%
viability, T/C [3]: 90.7%
viability, T/C [4]: 87.1%
viability, T/C [5]: 19.3%
viability, T/C [6]: 3.6%
viability, T/C [7]: 113%
viability, T/C [8]: 100%
viability, T/C [9]: 107%
viability, T/C [10]: 84.3%
viability, T/C [11]: 20.2%
viability, T/C [12]: 4.03%
viability, T/C [13]: 109%
viability, T/C [14]: 106%
viability, T/C [15]: 95.6%
viability, T/C [16]: 77.7%
viability, T/C [17]: 18.3%
viability, T/C [18]: 4.22%
viability, T/C [19]: 105%
viability, T/C [20]: 99.8%
viability, T/C [21]: 93.2%
viability, T/C [22]: 77.3%
viability, T/C [23]: 19.3%
viability, T/C [24]: 3.49%
viability, T/C [25]: 97%
viability, T/C [26]: 89.7%
viability, T/C [27]: 91.3%
viability, T/C [28]: 73.1%
viability, T/C [29]: 15.6%
viability, T/C [30]: 4.86%
viability, T/C [31]: 86%
viability, T/C [32]: 82.1%
viability, T/C [33]: 70.5%
viability, T/C [34]: 60.7%
viability, T/C [35]: 12.1%
viability, T/C [36]: 3.34%
